Test results reported in patent US11389483B2, “Methods for treating pain” (Duke University, priority 2015, dated 2022).

Columns and labels:
BMSCs = test: Transwell migration (chemotaxis) assay; assay type: cell-based, mice
Protocol: The migratory ability of BMSCs was determined using Transwell plates (Corning Costar, 6.5 mm in diameter with 8 μm pore filters). In brief, 5×10^4 cells in 100 μL, serum-free medium were added into the upper well, and 600 μL, of CXCL12-containing medium was placed in the lower well of a Transwell plate. Following incubation for 5 h (37° C., 100% humidity, 5% CO2 in air), the number of cells that had migrated to the lower side of the filter was counted under a light microscope at ×200 magnification, and the data were presented as the average number of migratory in five randomly-selected fields. Each experiment was performed in triplicate, and the data were averaged for statistical analysis.

small-sized DRG neurons = test: Whole-cell patch clamp recordings of action potentials in whole mount DRG; assay type: cell-based, mice
Protocol: The L4-L5 whole mount DRGs were carefully removed from the vertebral column and placed in cold oxygenated ACSF as detailed in Lee et al. (Cell 2014, 157, 1393-1404). The connective tissue was gently removed under a microscope and the ganglia were digested with a mixture of 1.0 mg/mL protease and 1.6 mg/mL collagenase (Sigma) for 30 min at 37° C. The ganglion was transferred into a holding chamber containing normal Mg2+-free ACSF with CNQX (2 μM) bubbled with 95% O2 and 5% CO2 at room temperature. Whole-cell current clamp recordings were performed at room temperature (28° C.) to measure action potentials with Axopatch-200B amplifier (Axon Instruments). The patch pipettes were pulled from borosilicate capillaries (Chase Scientific Glass Inc.). When filled with the pipette solution, the resistance of the pipettes was 4-5 MΩ. The recording chamber (300 μL) was continuously superfused (3-4 mL/min). Series resistance was compensated for (>80%), and leak subtraction was performed. Data were low-pass-filtered at 2 KHz, sampled at 10 KHz. The pClamp10 (Axon Instruments) software was used during experiments and analysis.

[1] = tested on: PAX-induced mechanical allodynia in mice; test: Paclitaxel (PAX)-induced neuropathic pain model: paw withdrawal frequency to von Frey hair (0.4 g); assay type: in vivo; conditions: i.t. TGF-β1 100 ng, 7 weeks after first paclitaxel injection
Protocol: PAX-induced neuropathic pain (mechanical allodynia) was evaluated by paw withdrawal frequency to von Frey hair (0.4 g) stimuli (10×). Intrathecal BMSCs (2.5×10^5) produced a rapid (1 week) and long lasting (7 weeks) reduction in PAX-induced mechanical allodynia (FIG. 19B).
The analgesic efficacy of TGF-β1 was also tested in a PAX-induced neuropathic pain model. […] PAX-induced neuropathic pain was evaluated by paw withdrawal frequency to von Frey hair (0.4 g) stimuli (10×). Intrathecal TGF-β1 transiently reversed PAX-induced mechanical allodynia for 3 hours following injection (FIG. 20).

CCI mice [2] = test: CCI neuropathic pain model: mechanical allodynia (von Frey) and thermal hyperalgesia (Hargreaves); assay type: in vivo
Excerpt: Adult CD1 mice (male, 25-32 g) were purchased from Charles River Laboratories and used for behavioral studies and primary cultures of BMSCs. Neuropathic pain was produced by chronic constriction injury of the sciatic nerve (CCI) (Bennett, et al. J. Neurosci. 1998, 18, 3059-3072) and spared nerve injury (SNI) (Decosterd, et al. Pain 2000, 87, 149-158). For producing the CCI model animals were anesthetized with isoflurane, the left sciatic nerve was exposed, and three ligatures (7-0 prolene) were placed around the nerve proximal to the trifurcation with one millimeter between each ligature. The ligatures were loosely tied until a short flick of the ipsilateral hind limb was observed. Animals in the sham group received surgery identical to those described but without nerve ligation. Under isoflurane anesthesia, the SNI surgery was also performed with a 5.0 silk tight ligation of the tibial and common peroneal nerves followed by transection and removal of a 3-5 mm nerve portion. However, the third peripheral branch of the sciatic nerve, the sural nerve, remained intact, and any contact or stretch to this nerve was carefully avoided. All the animal procedures performed in this study were approved by the Animal Care Committee of Duke University Medical Center. TGF-β1, […] neutralizing antibody, TNF and CXCL12/SDF-1α were purchased from R&D, LPS from Sigma. AMD3100 (CXCR4 antagonist) and SB431542 (TGF-β1R inhibitor) were purchased from Selleckchem. IL-10 neutralizing antibody was purchased from Biolegend, and normal Rabbit IgG were purchased from Santa Cruz. For intrathecal injection, spinal cord puncture was made with a 30-G needle between the L5 and L6 level to deliver reagents (10 μL) or cells (1 or 2.5×10^5 cells in 10 μL PBS) to the cerebral spinal fluid (Hylden, et al. Eur. J. Pharmacol. 1980, 67, 313-316). […] Cells were then washed three times with PBS and resuspended. Animals were habituated to the testing environment daily for at least 2 days before baseline testing. The room temperature and humidity remained stable for all experiments. All the behaviors were tested blindly. For testing mechanical sensitivity, mice were confined in boxes placed on an elevated metal mesh floor and their hindpaws were stimulated with a series of von Frey hairs with logarithmically increasing stiffness (0.02-2.56 g, Stoelting), presented perpendicularly to the central plantar surface. The 50% paw withdrawal threshold was determined by Dixon's up-down method. Mechanical allodynia after SNI was also assessed by frequency response (expressed as percentage response) to a low-threshold von Frey hair (0.16 g, 10 times). […] The falling latency was recorded and averaged.

[3] = tested on: lamina IIo neurons of spinal cord slices; test: Patch-clamp recordings of sEPSCs in spinal cord slices; assay type: cell-based, mice
Protocol: A portion of the lumbar spinal cord (L4-L5) was removed from mice (4-7 weeks old) under urethane anesthesia (1.5-2.0 g/kg, i.p.) and kept in pre-oxygenated ice-cold Krebs solution (Xu, et al. Ann. Neurol. 2013, 74, 490-495). Transverse slices (400-600 μm) were cut on a vibrating microslicer. The slices were perfused with Kreb's solution (8-10 mL/min) that was saturated with 95% O2 and 5% CO2 at 36° C. for at least 1-3 h prior to experiment. The Kreb's solution contained (in mM): NaCl 117, KCl 3.6, CaCl2 2.5, MgCl2 1.2, NaH2PO4 1.2, NaHCO3 25, and […]. The whole-cell patch-clamp recordings were made from lamina IIo neurons in voltage-clamp mode. Patch pipettes were fabricated from thin-walled, borosilicate, glass-capillary tubing (1.5 mm outer diameter; World Precision Instruments). After establishing the whole-cell configuration, neurons were held their holding potentials at −70 mV for recording sEPSCs. The resistance of a typical patch pipette is 5-10 M. The internal solution contained the following (in mM): 135 potassium gluconate, 5 KCl, 0.5 CaCl2, 2 MgCl2, 5 EGTA, 5 HEPES, and 5 ATP-Mg. Membrane currents were amplified with an Axopatch 200 A amplifier (Molecular Devices) in voltage-clamp mode. Signals were filtered at 2 kHz and digitized at 5 kHz. Data were stored with a personal computer using pClamp 6 software and analyzed with Mini Analysis (Synaptosoft).

TGF-β1 = test: ELISA of TGF-β1 release and expression in BMSCs cultures; assay type: cell-based, mice; conditions: TNF 10 ng/mL, 60 min, LPS 100 ng/mL
Protocol: Tgfβ1 siRNA (Catalog: J-040652-06), Cxcr4 siRNA (Catalog: J-060184-06) and Non-targeting siRNA (Catalog: D-0018100-01-20) were purchased from Thermo Scientific Dharmacon. SiRNA was dissolved in RNase-free water at 1 μg/μL as stock solution and mixed with transfection reagent polyethyleneimine (PEI, Fermentas) and normal saline before use. Specifically, 1 μg siRNA was dissolved in 3.3 μL of PEI and 66 μL of normal saline (Kawasaki, et al. Nat. Med. 2008, 14, 331-336).
Primary cultures of BMSCs were obtained from CD-1 donor mice under aseptic conditions. The mice were sacrificed with isoflurane and the both ends of the tibiae and femurs were cut off by scissors. A syringe fitted with 20-gauge needle was inserted into the shaft of the bone, and bone marrow was flushed out with culture medium (modified Eagle's medium containing 10% fetal bovine serum, 2 mM L-glutamine, 100 U/mL penicillin and 100 μg/mL streptomycin, 250 μg/mL Fungizone, all obtained from Gibco). After the centrifuge at 1000 g for 5 min at room temperature, the pellet was resuspended in 2 mL fresh warm culture medium and mechanically dissociated, and the suspension was passed through a 40-μm cell strainer to remove debris. After the centrifuge the cells were resuspended at a concentration of 1×10^6 cells/mL. The cells were then incubated at 37° C. in 5% CO2 in 75 cm2 cell culture flasks or 6-well culture plates. […]

IL-10 = test: ELISA of IL-10 release in BMSCs culture medium; assay type: cell-based, mice; conditions: TNF 10 ng/mL, 60 min, LPS 100 ng/mL
Protocol: Primary cultures of BMSCs were obtained from CD-1 donor mice under aseptic conditions. The mice were sacrificed with isoflurane and the both ends of the tibiae and femurs were cut off by scissors. A syringe fitted with 20-gauge needle was inserted into the shaft of the bone, and bone marrow was flushed out with culture medium (modified Eagle's medium containing 10% fetal bovine serum, 2 mM L-glutamine, 100 U/mL penicillin and 100 μg/mL streptomycin, 250 μg/mL Fungizone, all obtained from Gibco). After the centrifuge at 1000 g for 5 min at room temperature, the pellet was resuspended in 2 mL fresh warm culture medium and mechanically dissociated, and the suspension was passed through a 40-μm cell strainer to remove debris. After the centrifuge the cells were resuspended at a concentration of 1×10^6 cells/mL. The cells were then incubated at 37° C. in 5% CO2 in 75 cm2 cell culture flasks or 6-well culture plates. After 24 hours, cells were washed gently with PBS and replaced with fresh culture media. Adherent cells were further cultured with a medium change every 2-3 days until confluence was reached (also see FIG. 11).
Mouse TGF-β1, IL-10, and CXCL12/SDF-1α ELISA kits were purchased from R&D Systems. ELISA was performed using BMSCs culture medium or cell lysate, CSF, and DRG tissue. Cultured cells and DRGs were homogenized in a lysis buffer containing protease and phosphatase inhibitors. […]

CCI mice [4] = test: Two-chamber conditioned place preference test for ongoing pain after CCI; assay type: in vivo; conditions: clonidine 10 μg i.t.
Excerpt: To test spontaneous/ongoing pain measurement, a single trial conditioning protocol for conditioned place preference (CPP) was used as described in King et al. (Nat. Neurosci. 2009, 12, 1364-1366) and Xu et al. (Ann. Neurol. 2013, 74, 490-495). All mice underwent a 3-day pre-conditioning habituation and animal behavior was video-recorded. […] On the conditioning day, mice received the vehicle (saline) control paired with a randomly chosen chamber in the morning, and then the appropriate treatment (clonidine, 10 μg, i.t.) paired with the other chamber 4 h later. Chamber pairings were counterbalanced. On the test day, 20 h following the afternoon pairing, mice were placed in the CPP box with access to both chambers and the behavior was recorded for 15 min and analyzed by ANY-maze software for chamber preference.

CXCL12: chemokine, ligand of CXCR4, purchased from R&D
migration of BMSCs in vitro (BMSCs; CXCL12 0-100 ng/ml): induced migration

TGF-β1: exogenous recombinant TGF-β1 purchased from R&D, given intrathecally or superfused
CCI-induced increase in spike frequency in small-sized DRG neurons (small-sized DRG neurons; TGF-β1 2 or 10 ng/mL): dose-dependently suppressed | time to suppression of the spike frequency increase (small-sized DRG neurons; TGF-β1 2 or 10 ng/mL): 2 to 5 min | duration of reversal of PAX-induced mechanical allodynia following injection [1]: 3 h | late-phase neuropathic pain on post-CCI day 21 (CCI mice [2]; i.t. TGF-β1): effectively inhibited | mechanical allodynia and thermal hyperalgesia at 5 days after CCI (CCI mice [2]; i.t. TGF-β1 2 ng and 10 ng): dose-dependently inhibited | time after which the reversal of allodynia/hyperalgesia recovered (CCI mice [2]; i.t. TGF-β1 2 and 10 ng, 5 days after CCI): 24 h | sEPSC frequency and amplitude in sham mice ([3]; superfusion 10 ng/mL): no effects | time to blockade of CCI-induced sEPSC increases ([3]; superfusion 2 or 10 ng/mL): 2 min | CCI-induced increases in sEPSC frequency and amplitude ([3]; superfusion 2 or 10 ng/mL, slices from CCI mice (4 d)): blocked

TNF-α
TGF-β1 release of BMSCs on exposure (TGF-β1): significantly increased | IL-10 release of BMSCs on exposure (increase) (IL-10): not

NC(=O)c1ccc(-c2nc(-c3ccc4c(c3)OCO4)c(-c3ccccn3)[nH]2)cc1 [SB431542, reference compound]
effect on the TGF-β1 suppression of spike frequency (small-sized DRG neurons; SB431542 10 μM): reversed | effect on the anti-allodynic and anti-hyperalgesic effects of TGF-β1 (10 ng) (CCI mice [2]; SB431542 100 pmol i.t., CCI mice): eliminated | effect on the TGF-β1 (10 ng/mL) blockade of sEPSC increases ([3]; SB431542 10 μM): abrogated

c1cc(CN2CCCNCCNCCCNCC2)ccc1CN1CCCNCCNCCCNCC1 [AMD3100]
CXCL12-induced migration of BMSCs (BMSCs; AMD3100 5 mg/L 30 min): blocked

Clc1cccc(Cl)c1N=C1NCCN1 [clonidine]
time in chamber paired with drug versus chamber paired with vehicle (CPP) (CCI mice [4]): spent more time
